These results are taken from patent US9029325B2, “Amylin analogues and pharmaceutical compositions thereof” (Novo Nordisk A/S, priority 2011, dated 2015).

The nature of data set [1]: Assay (I) efficacy testing on appetite (food intake), ad libitum fed rat model. Particulars: 3 nmol/kg. Type of data set: in vivo, Sprague Dawley (SD) rats. The method, boiled down:
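Ad libitum fed SD rats (200-250 g) on a reversed light cycle, housed individually, received a single 0.01-3 mg/kg dose ip, po or sc just before lights-off. Individual food intake recorded hourly for 7 h, then at 24 h and sometimes 48 h, versus vehicle; Grubbs outliers excluded.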

Data set [2] is described as follows: Assay (III) ThT fibrillation assay for physical stability. The format is physicochemical. The method in brief: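 Freshly prepared samples, pH adjusted with NaOH and HClO4 or HCl, received ThT at 1 μM final and were incubated at 37° C with orbital shaking at 960 rpm. Fluorescence (ex 444 nm, em 485 nm) was read every 20 minutes; […], with polypeptide concentration by reverse HPLC before and after.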

The target of data set [3] is T1, human amylin receptor (amylin 3(a) receptor: human calcitonin receptor + RAMP-3) (Homo sapiens, UniProt O60896+P30988).
T1 construct: expressed in transfected cells
T1 sequence (P30988 25-474): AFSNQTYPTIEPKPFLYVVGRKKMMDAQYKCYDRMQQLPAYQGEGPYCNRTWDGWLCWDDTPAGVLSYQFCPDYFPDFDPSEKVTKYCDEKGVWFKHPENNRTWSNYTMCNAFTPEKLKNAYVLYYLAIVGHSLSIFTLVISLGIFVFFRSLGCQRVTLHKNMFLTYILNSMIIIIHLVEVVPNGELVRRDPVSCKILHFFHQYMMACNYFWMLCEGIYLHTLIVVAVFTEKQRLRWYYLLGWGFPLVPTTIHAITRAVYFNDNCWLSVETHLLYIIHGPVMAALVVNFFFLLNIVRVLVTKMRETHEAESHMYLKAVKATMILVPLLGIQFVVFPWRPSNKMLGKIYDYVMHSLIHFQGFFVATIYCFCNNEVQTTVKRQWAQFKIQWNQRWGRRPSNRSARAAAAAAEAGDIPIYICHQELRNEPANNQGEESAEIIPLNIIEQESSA
T1 sequence (O60896 24-148 partner): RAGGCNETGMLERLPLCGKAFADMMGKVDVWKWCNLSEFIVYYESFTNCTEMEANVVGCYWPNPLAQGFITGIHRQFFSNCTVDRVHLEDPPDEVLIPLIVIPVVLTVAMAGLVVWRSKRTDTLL
Kind of data set: Assay (II)a functional human amylin receptor CRE-luciferase assay. Type of data set: cell-based. The settings on record: Table 11. An excerpt:
(§1) Activation of calcitonin and amylin (coexpression of calcitonin receptor and receptor activity modifying proteins (RAMP)) receptors lead to increased intracellular concentrations of cAMP. Consequently, transcription is activated by promoters containing multiple copies of the cAMP response element (CRE). It is thus possible to measure amylin activity by the use of a CRE luciferase reporter gene introduced into BHK cells also expressing calcitonin or amylin receptors.
(§2) A BHK570 cell line was stably transfected with the human calcitonin receptor and a CRE-responsive luciferase reporter gene. The cell line was further transfected with RAMP-3, using standard methods. This turns the calcitonin receptor into an amylin 3(a) receptor. Methotrexate, Neomycin, and Hygromycin are selection markers for luciferase, the calcitonin receptor, and RAMP-3, respectively.
(§3) To perform activity assays, BHK calcitonin (a) receptor- or amylin 3(a)-receptor/CRE-luc cells were seeded in white 96 well culture plates at a density of about 20.000 cells/well. […] After incubation overnight at 37° C. and 5% CO2, the growth medium was replaced by 50 μl/well assay medium (DMEM (without phenol red), Glutamax™, 10% FBS, and 10 mM Hepes, pH 7.4). Further, 50 μl/well of standard or sample in assay buffer were added. […] Finally, luminescence was measured on a TopCounter (Packard) in SPC (single photon counting) mode.

Data set [4] deals with T2, human calcitonin receptor (CTa receptor) (Homo sapiens, UniProt P30988).
T2 construct: expressed in transfected cells
T2 sequence (P30988 25-474): T1 sequence (P30988 25-474)
Kind of data set: Assay (II)a functional human calcitonin receptor CRE-luciferase assay. Type of data set: cell-based. The settings on record: Table 11.
Text: as §1, §2, §3

For data set [5], the target named is T3, rat amylin 3(a) receptor (rat calcitonin(a) receptor + rat RAMP3) (Rattus norvegicus, UniProt P32214+Q9JJ73).
T3 construct: expressed in transfected cells; host or cells: BHK tk'ts 13 (transient, FuGENE 6)
T3 sequence (P32214 25-479 isoform P32214-2 limits assumed): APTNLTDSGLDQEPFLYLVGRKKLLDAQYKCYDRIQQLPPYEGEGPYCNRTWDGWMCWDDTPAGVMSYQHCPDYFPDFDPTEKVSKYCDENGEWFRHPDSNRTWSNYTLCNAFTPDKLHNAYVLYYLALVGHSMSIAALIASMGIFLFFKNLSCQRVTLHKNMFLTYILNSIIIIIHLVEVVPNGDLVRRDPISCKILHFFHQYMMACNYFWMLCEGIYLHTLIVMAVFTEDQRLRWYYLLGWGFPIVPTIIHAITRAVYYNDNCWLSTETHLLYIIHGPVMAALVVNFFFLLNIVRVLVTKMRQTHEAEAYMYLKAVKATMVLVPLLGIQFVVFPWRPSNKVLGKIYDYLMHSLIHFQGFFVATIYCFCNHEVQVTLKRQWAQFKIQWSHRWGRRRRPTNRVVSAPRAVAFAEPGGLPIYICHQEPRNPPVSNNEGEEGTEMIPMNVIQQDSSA
T3 sequence (Q9JJ73 23-147 partner): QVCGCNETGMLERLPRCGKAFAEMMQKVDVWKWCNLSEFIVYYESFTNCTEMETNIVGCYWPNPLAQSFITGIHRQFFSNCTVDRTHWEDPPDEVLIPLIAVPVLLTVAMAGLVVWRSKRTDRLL
As to the kind of experiment: Assay (II)b functional rat amylin receptor cAMP FlashPlate assay. The format is cell-based. Particulars: Table 11. An excerpt: (§4) Activation of calcitonin and amylin (coexpression of calcitonin receptor and receptor activity modifying proteins (RAMP)) receptors lead to increased intracellular concentrations of cAMP. In order to quantify the cAMP levels in transiently transfected cells the Adenylyl Cyclase Activation FlashPlate® Assay from Perkin Elmer was used. The basic principle of the FlashPlate® Assay is a competition between radioactive and non-radioactive cAMP generated by the cells for a fixed number of binding sites.
(§5) BHK tk′ts 13 cells were transiently transfected with either rat calcitonin (a) receptor or amylin 3 (a) receptor (rat calcitonin(a) receptor+ rat RAMP3) using FuGENE® 6 (Roche), according to the manufacturers recommendations.
(§6) 24 hours after transient transfection the cells (rat calcitonin(a)—or rat amylin 3(a)—receptor cells) were added (100.000 cells/well) to the 96 well FlashPlates® with samples or standard in FlashPlate stimulation buffer with IBMX and incubated for 30 min. Detection mix was created according to manufacturers protocol and scintillation measured after 3 h of incubation on TopCounter™ (Packard).

The target in data set [6] is T4, rat calcitonin (a) receptor (Rattus norvegicus, UniProt P32214).
T4 construct: expressed in transfected cells; host or cells: BHK tk'ts 13 (transient, FuGENE 6)
T4 sequence (P32214 25-479 isoform P32214-2 limits assumed): T3 sequence (P32214 25-479 isoform P32214-2 limits assumed)
Kind of data set: Assay (II)b functional rat calcitonin receptor cAMP FlashPlate assay. The settings on record: Table 11; read-out: CTa receptor rat EC50. The format is cell-based.
Text: as §4, §5, §6

A short description of data set [7]: Assay (IV) determination of solubility. Type of data set: physicochemical. The procedure:
The polypeptide was dissolved in water at −500 nmol/ml and mixed 1:1 with a series of buffers (100 mM glycylglycine pH 3.0, 100 mM glycylglycine pH 4.0, 100 mM glycylglycine pH 5.0, 100 mM bistrispropane pH 6.0, 100 mM bistrispropane pH 6.5, 100 mM bistrispropane pH 7.0, 100 mM bistrispropane pH 7.5, 100 mM bistrispropane pH 8.0). After 18 hours at room temperature the samples were centrifuged and the polypeptide concentration determined by UPLC.

Data set [8] has as its system amylin receptor versus calcitonin receptor. Particulars: cited from earlier work.

pEC50: −log10 of the molar value. Where two headings read alike, the source gives them in different places. Starred links: 1 amine or outer side, 2 acyl side, 3 side chain; linkers in the order of their positions; H or OH if unused. Positions of bridges follow the written chain, without caps; N, C: chain ends. Residues, ends and D or L forms follow the SMILES beside them. Groups on a side chain read outwards from the residue. *: point of attachment. C20 diacid = O=C(O)CCCCCCCCCCCCCCCCCCC(=O)*; γGlu = O=C(O)[C@H](CCC(=O)[*:2])N[*:1]

Regarding `CC[C@H](C)[C@H](NC(=O)[C@@H]1CCCN1C(=O)CNC(=O)[C@H](Cc1ccccc1)NC(=O)[C@H](CC(N)=O)NC(=O)[C@H](CC(N)=O)NC(=O)[C@H](CO)NC(=O)[C@H](CO)NC(=O)[C@H](Cc1c[nH]cn1)NC(=O)[C@H](Cc1c[nH]cn1)NC(=O)[C@H](CC(C)C)NC(=O)[C@H](Cc1ccccc1)NC(=O)[C@H](CCC(=O)O)NC(=O)[C@H](C)NC(=O)[C@H](CC(C)C)NC(=O)[C@H](CCCNC(=N)N)NC(=O)[C@H](CCC(N)=O)NC(=O)[C@@H](NC(=O)[C@H](C)NC(=O)[C@@H]1CSSC[C@H](NC(=O)[C@H](CCCNC(=N)N)NC(=O)CNC(=O)CC[C@H](NC(=O)CCCCCCCCCCCCCCCCCCC(=O)O)C(=O)O)C(=O)N[C@@H](CC(N)=O)C(=O)N[C@@H]([C@@H](C)O)C(=O)N[C@@H](C)C(=O)N[C@@H]([C@@H](C)O)C(=O)N1)[C@@H](C)O)C(=O)N[C@@H](CC(C)C)C(=O)N1CCC[C@H]1C(=O)N1CCC[C@H]1C(=O)N[C@H](C(=O)N[C@@H](CC(N)=O)C(=O)N[C@H](C(=O)NCC(=O)N[C@@H](CO)C(=O)N[C@@H](CC(N)=O)C(=O)N[C@H](C(=O)N1CCC[C@H]1C(N)=O)[C@@H](C)O)C(C)C)[C@@H](C)O` [Example 101, N-alpha-[(S)-4-Carboxy-4-(19-carboxynonadecanoylamino)butyryl]-Gly-[Arg1, Glu14, His17, Pro37]-pramlintide] ({C20 diacid-γGlu}-GRCNTATCATQRLAEFLHHSSNNFGPILPPTNVGSNTP-NH2; disulfide 3-8 (inferred); C-terminus assumed), in data set [1], the “Food intake reduction 0-24 h 3 nmol/kg (%)” value was found to be 70% and the “Food intake reduction 24-48 h 3 nmol/kg (%)” value is 90%. For the same compound, in data set [2] (37° C., orbital shaking 960 rpm), the “Th T pH 4.0 lag time (h)” value is listed as greater than 45 h. The “ThT pH 4.0 lag time” value in data set [2] (Table 9) is recorded as greater than 45 hr.
Consider `CC[C@H](C)[C@H](NC(=O)[C@@H]1CCCN1C(=O)CNC(=O)[C@H](Cc1ccccc1)NC(=O)[C@H](CC(N)=O)NC(=O)[C@H](CC(N)=O)NC(=O)[C@H](CO)NC(=O)[C@H](CO)NC(=O)[C@H](Cc1c[nH]cn1)NC(=O)[C@H](Cc1c[nH]cn1)NC(=O)[C@H](CC(C)C)NC(=O)[C@H](Cc1ccccc1)NC(=O)[C@H](CCC(=O)O)NC(=O)[C@H](C)NC(=O)[C@H](CC(C)C)NC(=O)[C@H](CCCNC(=N)N)NC(=O)[C@H](CCC(N)=O)NC(=O)[C@@H](NC(=O)[C@H](C)NC(=O)[C@@H]1CSSC[C@H](NC(=O)[C@@H](N)CCCCNC(=O)CC[C@H](NC(=O)CCCCCCCCCCCCCCCCCCC(=O)O)C(=O)O)C(=O)N[C@@H](CC(N)=O)C(=O)N[C@@H]([C@@H](C)O)C(=O)N[C@@H](C)C(=O)N[C@@H]([C@@H](C)O)C(=O)N1)[C@@H](C)O)C(=O)N[C@@H](CC(C)C)C(=O)N1CCC[C@H]1C(=O)N1CCC[C@H]1C(=O)N[C@H](C(=O)N[C@@H](CC(N)=O)C(=O)N[C@H](C(=O)NCC(=O)N[C@@H](CO)C(=O)N[C@@H](Cc1c[nH]cn1)C(=O)N[C@H](C(=O)N[C@@H](Cc1ccc(O)cc1)C(N)=O)[C@@H](C)O)C(C)C)[C@@H](C)O` [compound 87] (H-K([γGlu-C20 diacid])CNTATCATQRLAEFLHHSSNNFGPILPPTNVGSHTY-NH2; disulfide 2-7 (inferred); C-terminus assumed), for which the “Food intake reduction 0-24 h 3 nmol/kg (%)” value in data set [1] was found to be 66%. Also, the “Food intake reduction 24-48 h 3 nmol/kg (%)” value in data set [1] stood at 47%. The pEC50 – broadly, the negative decadic logarithm of the EC50, by convention in mol/L – in data set [3] was 9.85; in data set [4] it was 9.64; in data set [5], 9.97; in data set [6] it was 9.36. The solubility (as a rule, the concentration that dissolves in the medium under given conditions) at 18 h is greater than 200 µM in data set [7] (pH 3.0, read-out: Solubility (μM) pH 3.0); greater than 200 µM in data set [7] (pH 4.0, read-out: Solubility (μM) pH 4.0); greater than 200 µM in data set [7] (pH 5.0, read-out: Solubility (μM) pH 5.0); greater than 200 µM in data set [7] (pH 6.0, read-out: Solubility (μM) pH 6.0); greater than 200 µM in data set [7] (pH 6.5, read-out: Solubility (μM) pH 6.5); greater than 200 µM in data set [7] (pH 7.0, read-out: Solubility (μM) pH 7.0). The solubility at 18 h in data set [7] (pH 7.5, read-out: Solubility (μM) pH 7.5) was greater than 200 µM; in data set [7] (pH 8.0, read-out: Solubility (μM) pH 8.0), greater than 200 µM.
For the compound pramlintide, the “times more potent on the amylin receptor than on the calcitonin receptor” value in data set [8] is 14 times; in data set [8] (listed as Pramlintide), “approximately 14 times”.
